Experimental data taken from patent US5140018A, “1,3,2-benzodithiazole-1-oxide compounds” (Abbott Laboratories, priority 1991, dated 1992).
In brackets after ≈: the same amount, converted by molar mass.

Columns and labels:
Type in all cases: cell-based
[1] = test system: Candida albicans ATCC 38247; assay: In vitro antifungal MIC, Candida albicans ATCC 38247; conditions: ATCC38247; Candida albicans ATCC 38247; 35°-37° C., 48 hours; read-out: MIC
Procedure: (§1) The in vitro antifungal activity of the compounds of the present invention against a variety of fungiwas determined as follow: Test medium was prepared by dissolving first 5 g of dextrose and then 6.7 g of Bacto Yeast Nitrogen Base® (commercially available from Difco Laboratories) in 100 mL of distilled water. The solution was filter-sterilized and diluted 1:10 with 0.01M pH 8.0 phosphate buffer solution, and the final pH of the medium adjusted to about pH 7.0 when necessary with either 0.1N hydrochloric acid solution of 0.1N sodium hydroxide solution. […] These concentrated stock solutions were diluted to a concentration of 200 μg/mL (twice the highest concentration desired for testing) with the test medium. Amphotericin B, similarly prepared, was used as a reference antifungal agent.
(§2) The test organisms were then inoculated into test tubes containing approximately 3 to 10 mL of test medium and the test tubes incubated overnight at 37° C. A sample of each overnight culture was placed in a test tube and diluted using the test medium until a reading of 95% transmittance was obtained in a conventional UV/visible spectrophotometer set to 560 nm. The adjusted cultures were then diluted 1:50 with test medium. These diluted cultures served as the inocula for the assays which follow and were used within 15 minutes of preparation.
(§3) Next, 2-fold serial dilutions of each test compound in test medium were prepared in a 96-well microtiter plate using calibrated microdiluters attached to an automatic (hand-held) diluter (available from Dynatech Laboratories).
(§4) Using sterile calibrated droppers or a multi-point dispenser, the diluted inoculum suspension was added to each of the wells in the plate. When inoculation was complete, the microtiter tray was covered with a plastic plate sealer to minimize evaporation. After the plate had been sealed, a hole was made above each well with a sterile 26-gauge syringe needle in order to allow gas exchange. If plate sealers were not available, the microtiter trays were stacked in groups of five or less with an empty tray on top. The microtiter trays were then incubated in a humidified chamber at 35°-37° C. for 48 hours or until growth was visible in the growth control wells.
(§5) The minimum inhibitory concentration (MIC) was defined as the lowest concentration of test compound yielding no growth, a slight haze or sparsely isolated colonies on the inoculum spot as compared to the growth control containing no test compound.

[2] = test system: Aspergillus niger ATCC 16404; assay: In vitro antifungal MIC, Aspergillus niger ATCC 16404; conditions: ATCC16404; Aspergillus niger ATCC 16404; 35°-37° C., 48 hours; read-out: MIC
Procedure: as §1, §2, §3, §4, §5

Candida kefyr ATCC 28838 = assay: In vitro antifungal MIC, Candida kefyr ATCC 28838; conditions: Kluyveromyces marxianus, ATCC28838; Candida kefyr ATCC 28838; 35°-37° C., 48 hours; read-out: MIC
Procedure: as §1, §2, §3, §4, §5

[3] = test system: Candida albicans ATCC 62376; assay: In vitro antifungal MIC, Candida albicans ATCC 62376; conditions: ATCC62376; Candida albicans ATCC 62376; 35°-37° C., 48 hours; read-out: MIC
Procedure: as §1, §2, §3, §4, §5

[4] = test system: Torulopsis glabrata ATCC 15545; assay: In vitro antifungal MIC, Torulopsis glabrata ATCC 15545; conditions: Nakaseomyces glabratus, ATCC15545; Torulopsis glabrata ATCC 15545; 35°-37° C., 48 hours; read-out: MIC
Procedure: as §1, §2, §3, §4, §5

[5] = test system: Candida tropicalis NRRL-Y-112; assay: In vitro antifungal MIC, Candida tropicalis NRRL-Y-112; conditions: NRRLY112; Candida tropicalis NRRL-Y-112; 35°-37° C., 48 hours; read-out: MIC
Procedure: as §1, §2, §3, §4, §5

[6] = test system: Cryptococcus albidus ATCC 34140; assay: In vitro antifungal MIC, Cryptococcus albidus ATCC 34140; conditions: Naganishia albida, ATCC34140; Cryptococcus albidus ATCC 34140; 35°-37° C., 48 hours; read-out: MIC
Procedure: as §1, §2, §3, §4, §5

Candida albicans 579A = assay: In vitro antifungal MIC, Candida albicans 579A; conditions: Candida albicans 579A; 35°-37° C., 48 hours; read-out: MIC
Procedure: as §1, §2, §3, §4, §5

[7] = test system: Candida albicans ATCC 10231; assay: In vitro antifungal MIC, Candida albicans ATCC 10231; conditions: ATCC10231; Candida albicans ATCC 10231; 35°-37° C., 48 hours; read-out: MIC
Procedure: as §1, §2, §3, §4, §5

Candida albicans CCH 442 = assay: In vitro antifungal MIC, Candida albicans CCH 442; conditions: CCH442; Candida albicans CCH 442; 35°-37° C., 48 hours; read-out: MIC
Procedure: as §1, §2, §3, §4, §5

| MIC [1] [µg/mL] | MIC [2] [µg/mL] | MIC (Candida kefyr ATCC 28838) [µg/mL] | MIC [3] [µg/mL] | MIC [4] [µg/mL] | MIC [5] [µg/mL] | MIC [6] [µg/mL] | MIC (Candida albicans 579A) [µg/mL] | MIC [7] [µg/mL] | MIC (Candida albicans CCH 442) [µg/mL] | Compound |
| --- | --- | --- | --- | --- | --- | --- | --- | --- | --- | --- |
| 6.25 (≈ 23.9 µM) | 0.39 (≈ 1.49 µM) | 0.39 (≈ 1.49 µM) | 0.78 (≈ 2.98 µM) | 1.56 (≈ 5.97 µM) | 1.56 (≈ 5.97 µM) | 6.25 (≈ 23.9 µM) | 0.78 (≈ 2.98 µM) | 0.78 (≈ 2.98 µM) | 0.78 (≈ 2.98 µM) | [O-][S+]1c2ccccc2SN1Cc1ccccc1 (stereo not drawn) [Example 35, 2-benzyl-1,3,2-benzodithiazole-1-oxide] |
| 12.5 (≈ 37.8 µM) | 3.12 (≈ 9.45 µM) | 0.78 (≈ 2.36 µM) | 3.12 (≈ 9.45 µM) | 3.12 (≈ 9.45 µM) | 3.12 (≈ 9.45 µM) | 25 (≈ 75.7 µM) | 1.56 (≈ 4.72 µM) | 3.12 (≈ 9.45 µM) | 6.25 (≈ 18.9 µM) | [O-][S+]1c2ccccc2SN1Cc1ccc(Cl)cc1Cl (stereo not drawn) [Example 36, 2-(2,4-dichlorophenyl)methyl-1,3,2-benzodithiazole-1-oxide] |
| 3.12 (≈ 10.2 µM) | 3.12 (≈ 10.2 µM) | 1.56 (≈ 5.12 µM) | 6.25 (≈ 20.5 µM) | 6.25 (≈ 20.5 µM) | 6.25 (≈ 20.5 µM) | 12.5 (≈ 41.1 µM) | 3.12 (≈ 10.2 µM) | 1.56 (≈ 5.12 µM) | 6.25 (≈ 20.5 µM) | CN(C)c1ccc(CN2Sc3ccccc3[S+]2[O-])cc1 (stereo not drawn) [Example 37, 2-(4-(dimethylamino)phenyl)methyl-1,3,2-benzodithiazole-1-oxide] |
| 12.5 (≈ 43.2 µM) | 1.56 (≈ 5.39 µM) | 1.56 (≈ 5.39 µM) | 3.12 (≈ 10.8 µM) | 3.12 (≈ 10.8 µM) | 6.25 (≈ 21.6 µM) | 25 (≈ 86.4 µM) | 3.12 (≈ 10.8 µM) | 1.56 (≈ 5.39 µM) | 3.12 (≈ 10.8 µM) | [O-][S+]1c2ccccc2SN1CCCc1ccccc1 (stereo not drawn) [Example 39, 2-(3-phenylpropyl)-1,3,2-benzodithiazole-1-oxide] |

The remaining lines, values behind:

| Compound | MIC [1] [µg/mL] | MIC [2] [µg/mL] | MIC (Candida kefyr ATCC 28838) [µg/mL] | MIC [3] [µg/mL] | MIC [4] [µg/mL] | MIC [5] [µg/mL] | MIC [6] [µg/mL] | MIC (Candida albicans 579A) [µg/mL] | MIC [7] [µg/mL] | MIC (Candida albicans CCH 442) [µg/mL] |
| --- | --- | --- | --- | --- | --- | --- | --- | --- | --- | --- |
| [O-][S+]1c2ccccc2SN1C1CCCCCCC1 (stereo not drawn) [Example 28, 2-cyclooctyl-1,3,2-benzodithiazole-1-oxide] | 6.25 (≈ 22.2 µM) | 0.78 (≈ 2.77 µM) | 0.39 (≈ 1.39 µM) | 3.12 (≈ 11.1 µM) | 3.12 (≈ 11.1 µM) | 3.12 (≈ 11.1 µM) | 12.5 (≈ 44.4 µM) | 3.12 (≈ 11.1 µM) | 3.12 (≈ 11.1 µM) | 3.12 (≈ 11.1 µM) |
| [O-][S+]1c2ccccc2SN1C1C2CC3CC(C2)CC1C3 (stereo not drawn) [Example 29, 2-(2-adamantyl)-1,3,2-benzodithiazole-1-oxide] | 50 (≈ 164 µM) | 3.12 (≈ 10.2 µM) | 3.12 (≈ 10.2 µM) | 6.25 (≈ 20.5 µM) | 12.5 (≈ 40.9 µM) | 12.5 (≈ 40.9 µM) | 25 (≈ 81.8 µM) | 12.5 (≈ 40.9 µM) | 6.25 (≈ 20.5 µM) | 25 (≈ 81.8 µM) |
| [O-][S+]1c2ccccc2SN1c1ccccc1 (stereo not drawn) [Example 30, 2-phenyl-1,3,2-benzodithiazole-1-oxide] | 25 (≈ 101 µM) | 12.5 (≈ 50.5 µM) | 12.5 (≈ 50.5 µM) | 25 (≈ 101 µM) | 25 (≈ 101 µM) | 25 (≈ 101 µM) | 25 (≈ 101 µM) | 12.5 (≈ 50.5 µM) | 25 (≈ 101 µM) | 25 (≈ 101 µM) |
| [O-][S+]1c2ccccc2SN1c1ccc2c(c1)OCO2 (stereo not drawn) [Example 31] | 25 (≈ 85.8 µM) | 12.5 (≈ 42.9 µM) | 12.5 (≈ 42.9 µM) | 25 (≈ 85.8 µM) | 12.5 (≈ 42.9 µM) | 50 (≈ 172 µM) | 50 (≈ 172 µM) | 25 (≈ 85.8 µM) | 12.5 (≈ 42.9 µM) | 25 (≈ 85.8 µM) |
| [O-][S+]1c2ccccc2SN1Cc1cccs1 (stereo not drawn) [Example 34, 2-(2-thienyl)methyl-1,3,2-benzodithiazole-1-oxide] | 1.56 (≈ 5.83 µM) | 0.39 (≈ 1.46 µM) | 0.78 (≈ 2.92 µM) | 0.78 (≈ 2.92 µM) | 50 (≈ 187 µM) | 50 (≈ 187 µM) | 6.25 (≈ 23.4 µM) | 0.78 (≈ 2.92 µM) | 1.56 (≈ 5.83 µM) | 0.78 (≈ 2.92 µM) |
